Test results from ChEMBL document CHEMBL1127882, “Synthesis of coumarins as subtype-selective inhibitors of monoamine oxidase” (Bioorg Med Chem Lett, 1994).

What was measured:
[1] = target: T1, Amine oxidase [flavin-containing] B (Rattus norvegicus, UniProt P19643); test: In vitro inhibitory activity against monoamine oxidase B (MAO-B) in rat brain homogenate.; format: tissue-based
T1 sequence (P19643 whole entry): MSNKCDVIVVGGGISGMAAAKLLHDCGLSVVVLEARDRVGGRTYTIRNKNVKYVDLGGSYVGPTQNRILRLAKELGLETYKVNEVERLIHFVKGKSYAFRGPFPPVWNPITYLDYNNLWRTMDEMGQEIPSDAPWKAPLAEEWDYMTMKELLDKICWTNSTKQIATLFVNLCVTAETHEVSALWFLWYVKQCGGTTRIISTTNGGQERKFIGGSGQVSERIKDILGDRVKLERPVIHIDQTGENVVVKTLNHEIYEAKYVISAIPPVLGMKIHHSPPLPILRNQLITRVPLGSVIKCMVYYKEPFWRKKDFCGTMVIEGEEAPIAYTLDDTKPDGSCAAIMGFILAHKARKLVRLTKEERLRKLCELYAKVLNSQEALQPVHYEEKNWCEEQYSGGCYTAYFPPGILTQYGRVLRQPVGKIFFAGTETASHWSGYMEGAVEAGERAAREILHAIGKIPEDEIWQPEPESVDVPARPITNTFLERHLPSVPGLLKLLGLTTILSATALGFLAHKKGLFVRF

[2] = target: T2, Amine oxidase [flavin-containing] A (Rattus norvegicus, UniProt P21396); test: In vitro inhibitory against monoamine oxidase A (MAO-A) in rat brain homogenate.; format: tissue-based
T2 sequence (P21396 whole entry): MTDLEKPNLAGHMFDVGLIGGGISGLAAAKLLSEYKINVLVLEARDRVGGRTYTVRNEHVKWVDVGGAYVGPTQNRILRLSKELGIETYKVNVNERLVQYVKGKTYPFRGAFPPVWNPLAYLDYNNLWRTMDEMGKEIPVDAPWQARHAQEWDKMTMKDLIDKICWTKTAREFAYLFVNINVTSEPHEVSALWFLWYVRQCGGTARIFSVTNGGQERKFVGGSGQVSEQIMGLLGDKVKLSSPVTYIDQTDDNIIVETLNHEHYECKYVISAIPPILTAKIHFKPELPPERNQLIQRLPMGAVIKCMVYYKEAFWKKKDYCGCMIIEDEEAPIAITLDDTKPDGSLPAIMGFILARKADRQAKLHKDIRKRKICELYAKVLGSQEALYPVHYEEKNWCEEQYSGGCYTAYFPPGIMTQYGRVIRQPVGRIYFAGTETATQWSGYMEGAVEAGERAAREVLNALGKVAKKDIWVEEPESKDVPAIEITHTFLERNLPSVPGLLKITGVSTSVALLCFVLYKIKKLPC

Structure (SMILES) | IC50 [1] [nM] | IC50 [2] [nM]
Cc1c(C)c2ccc(OCc3ccccn3)cc2oc1=O | 9 | 1800
Cc1c(C)c2ccc(OCc3nc(C(C)C)no3)cc2oc1=O |  | > 10000
COc1ccc2c(C)c(C)c(=O)oc2c1 | 0.5 | 71
CCCCCS(=O)(=O)Oc1ccc2c(C)c(C)c(=O)oc2c1 | 2200 | 16
Cc1c(C)c2ccc(OCc3cc(C4CC4)on3)cc2oc1=O | 0.8 | 7000
Cc1c(C)c2ccc(OS(C)(=O)=O)cc2oc1=O | > 10000 | 
COc1cc(Br)c2oc(C3CCNCC3)cc2c1 [BROFAROMINE] |  | 5
Cc1c(C)c2ccc(OCc3csc(C(C)C)n3)cc2oc1=O | 1.4 | 10000
Cc1nnc(COc2ccc3c(C)c(C)c(=O)oc3c2)o1 | 15 | 5600
Cc1c(C)c2ccc(O)cc2oc1=O | > 10000 | ~10000
CCCCCCCCS(=O)(=O)Oc1ccc2c(C)c(C)c(=O)oc2c1 | > 10000 | 
Cc1c(C)c2ccc(OCc3nnc(C(C)C)s3)cc2oc1=O [ATIBEPRONE] | 0.9 | > 10000
CCS(=O)(=O)Oc1ccc2c(C)c(C)c(=O)oc2c1 [ESUPRONE] | 5000 | 
Cc1c(C)c2ccc(OC(C)c3ccc(C(C)C)cc3)cc2oc1=O (stereo not given) | 10000 | > 10000
Cc1c(C)c2ccc(OCc3ccc(C(C)C)cc3)c(C)c2oc1=O | > 10000 | > 10000
